# Measured values taken from PubChem BioAssay (NCI).
#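 The compound was tested at five concentrations on cells cultured in 96-well plates, with a 48-hour exposure period. GI50 marks 50% less growth. TGI: total growth inhibition.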
# Columns and labels:
# Assay in all cases: growth of human tumour cells (NCI), 48 h
# [1] = system: HCC-2998 colon
# [2] = system: OVCAR-4 ovarian
# [3] = system: SN12C renal
# [4] = system: UO-31 renal
# [5] = system: OVCAR-8 ovarian
# [6] = system: SF-295 CNS
# [7] = system: DU-145 prostate
# [8] = system: HL-60(TB) leukemia
# [9] = system: RPMI-8226 leukemia
# [10] = system: CCRF-CEM leukemia
# [11] = system: NCI-H522 lung
# [12] = system: UACC-257 melanoma
# [13] = system: MDA-MB-231 breast
# [14] = system: A498 renal
# [15] = system: KM12 colon
# [16] = system: SNB-19 CNS
# [17] = system: SF-539 CNS
# [18] = system: HOP-92 NSCLC
# [19] = system: HCT-116 colon
# [20] = system: HS 578T breast
# [21] = system: NCI-H23 lung
# [22] = system: SW-620 colon
# [23] = system: UACC-62 melanoma
# [24] = system: BT-549 breast
# [25] = system: NCI-H460 lung
# [26] = system: NCI/ADR-RES ovarian
# [27] = system: IGROV1 ovarian
# [28] = system: SK-MEL-2 melanoma
# [29] = system: SR leukemia
# [30] = system: RXF 393 renal
# [31] = system: SK-MEL-28 melanoma
# [32] = system: OVCAR-3 ovarian
# [33] = system: K-562 leukemia
# [34] = system: NCI-H226 lung
# [35] = system: ACHN renal
# [36] = system: SK-OV-3 ovarian
# [37] = system: COLO 205 colon
# [38] = system: MCF7 breast
# [39] = system: LOX IMVI melanoma
# [40] = system: U251 CNS
# [41] = system: MDA-MB-435
# [42] = system: HOP-62 NSCLC
# [43] = system: A549 NSCLC
# [44] = system: SNB-75 CNS
# [45] = system: SF-268 CNS
# [46] = system: M14 melanoma
# [47] = system: SK-MEL-5 melanoma
# [48] = system: CAKI-1 renal
# [49] = system: 786-0 renal
# [50] = system: HCT-15 colon
# [51] = system: T-47D breast
# [52] = system: TK-10 renal
# [53] = system: MALME-3M melanoma
# [54] = system: OVCAR-5 ovarian
# [55] = system: EKVX NSCLC
# [56] = system: HT29 colon
# [57] = system: PC-3 prostate
# [58] = system: MOLT-4 leukemia
structure (smiles),measurement,setting,value
CCCCCCCCCCCCCCCCNC(=O)OC(C)C,GI50,[1],2.56 µM
same,TGI,[1],6.22 µM
same,GI50,[2],2.01 µM
same,TGI,[2],4.37 µM
same,GI50,[3],4.53 µM
same,TGI,[3],17 µM
same,GI50,[4],1.54 µM
same,TGI,[4],3.38 µM
same,GI50,[5],3.82 µM
same,TGI,[5],18 µM
same,GI50,[6],2.11 µM
same,TGI,[6],5.81 µM
same,GI50,[7],1.81 µM
same,TGI,[7],3.41 µM
same,GI50,[8],2.01 µM
same,TGI,[8],5.56 µM
same,GI50,[9],5.22 µM
same,TGI,[9],40.8 µM
same,GI50,[10],2.31 µM
same,TGI,[10],6.2 µM
same,GI50,[11],2.01 µM
same,TGI,[11],4.62 µM
same,GI50,[12],13.2 µM
same,TGI,[12],28.8 µM
same,GI50,[13],2.37 µM
same,TGI,[13],5.41 µM
same,GI50,[14],0.37 µM
same,TGI,[14],5.95 µM
same,GI50,[15],1.83 µM
same,TGI,[15],3.5 µM
same,GI50,[16],5.48 µM
same,TGI,[16],16.3 µM
same,GI50,[17],5.15 µM
same,TGI,[17],12.7 µM
same,GI50,[18],3.02 µM
same,TGI,[18],13.7 µM
same,GI50,[19],1.96 µM
same,TGI,[19],4.17 µM
same,GI50,[20],2.19 µM
same,TGI,[20],16.5 µM
same,GI50,[21],3.04 µM
same,TGI,[21],10.3 µM
same,GI50,[22],1.46 µM
same,TGI,[22],2.87 µM
same,GI50,[23],6.04 µM
same,TGI,[23],19 µM
same,GI50,[24],21.9 µM
same,TGI,[24],55.9 µM
same,GI50,[25],1.11 µM
same,TGI,[25],2.46 µM
same,GI50,[26],3.34 µM
same,TGI,[26],13.6 µM
same,GI50,[27],2.27 µM
same,TGI,[27],5 µM
same,GI50,[28],2.43 µM
same,TGI,[28],6.15 µM
same,GI50,[29],1.56 µM
same,TGI,[29],5.01 µM
same,GI50,[30],8.07 µM
same,TGI,[30],26.6 µM
same,GI50,[31],13.5 µM
same,TGI,[31],27.1 µM
same,GI50,[32],1.99 µM
same,TGI,[32],3.89 µM
same,GI50,[33],2.14 µM
same,TGI,[33],5.86 µM
same,GI50,[34],3.56 µM
same,TGI,[34],14.1 µM
same,GI50,[35],2.16 µM
same,TGI,[35],5.24 µM
same,GI50,[36],5.7 µM
same,TGI,[36],14.3 µM
same,GI50,[37],1.95 µM
same,TGI,[37],3.61 µM
same,GI50,[38],1.88 µM
same,TGI,[38],3.53 µM
same,GI50,[39],1.61 µM
same,TGI,[39],2.97 µM
same,GI50,[40],1.96 µM
same,TGI,[40],3.67 µM
same,GI50,[41],2.55 µM
same,TGI,[41],6.93 µM
same,GI50,[42],5.11 µM
same,TGI,[42],11.2 µM
same,GI50,[43],1.95 µM
same,TGI,[43],3.82 µM
same,GI50,[44],5.74 µM
same,TGI,[44],18.1 µM
same,GI50,[45],2.73 µM
same,TGI,[45],8 µM
same,GI50,[46],3.5 µM
same,TGI,[46],14.4 µM
same,GI50,[47],12.3 µM
same,TGI,[47],27.8 µM
same,GI50,[48],2.03 µM
same,TGI,[48],4.75 µM
same,GI50,[49],9.38 µM
same,TGI,[49],29.4 µM
same,GI50,[50],2.35 µM
same,TGI,[50],6.79 µM
same,GI50,[51],3.79 µM
same,TGI,[51],12.6 µM
same,GI50,[52],2.09 µM
same,TGI,[52],4.48 µM
same,GI50,[53],2.89 µM
same,TGI,[53],9.24 µM
same,GI50,[54],2.81 µM
same,TGI,[54],8.39 µM
same,GI50,[55],2.35 µM
same,TGI,[55],6.44 µM
same,GI50,[56],1.65 µM
same,TGI,[56],3.12 µM
same,GI50,[57],2.45 µM
same,TGI,[57],7.53 µM
COC(=O)[C@@H]1CCCN1C(=O)[C@@H]1CCCN1C(=O)[C@H](Cc1ccccc1)NC(=S)Nc1cc(C(F)(F)F)cc(C(F)(F)F)c1,GI50,[1],2.65 µM
same,TGI,[1],7.06 µM
same,GI50,[2],4.29 µM
same,TGI,[2],> 100 µM
same,GI50,[3],3.47 µM
same,TGI,[3],> 100 µM
same,GI50,[4],3.3 µM
same,TGI,[4],> 100 µM
same,GI50,[5],4.31 µM
same,TGI,[5],> 100 µM
same,GI50,[6],2.16 µM
same,TGI,[6],4.82 µM
same,GI50,[7],5.06 µM
same,TGI,[7],> 100 µM
same,GI50,[8],2.53 µM
same,TGI,[8],5.49 µM
same,GI50,[9],3.36 µM
same,TGI,[9],41 µM
same,GI50,[10],3.54 µM
same,TGI,[10],> 100 µM
same,GI50,[11],3.17 µM
same,TGI,[11],9.6 µM
same,GI50,[12],2.92 µM
same,TGI,[12],11.4 µM
same,GI50,[13],2.04 µM
same,TGI,[13],5.6 µM
same,GI50,[58],2.88 µM
same,TGI,[58],7.88 µM
same,GI50,[14],2.55 µM
same,TGI,[14],22.9 µM
same,GI50,[15],3.93 µM
same,TGI,[15],> 100 µM
same,GI50,[16],3.77 µM
same,TGI,[16],> 100 µM
same,GI50,[17],4.51 µM
same,TGI,[17],> 100 µM
same,GI50,[18],1.77 µM
same,TGI,[18],5.65 µM
same,GI50,[19],3.01 µM
same,TGI,[19],15.2 µM
same,GI50,[20],4.49 µM
same,TGI,[20],> 100 µM
same,GI50,[21],3.16 µM
same,TGI,[21],> 100 µM
same,GI50,[22],5.11 µM
same,TGI,[22],> 100 µM
same,GI50,[23],3.3 µM
same,TGI,[23],63.5 µM
same,GI50,[24],4.39 µM
same,TGI,[24],71.5 µM
same,GI50,[25],3.4 µM
same,TGI,[25],> 100 µM
same,GI50,[26],2.99 µM
same,TGI,[26],> 100 µM
same,GI50,[27],7.24 µM
same,TGI,[27],> 100 µM
same,GI50,[28],2.93 µM
same,TGI,[28],7.39 µM
same,GI50,[29],3.69 µM
same,TGI,[29],24.9 µM
same,GI50,[30],2.19 µM
same,TGI,[30],7.41 µM
same,GI50,[31],3.48 µM
same,TGI,[31],> 100 µM
same,GI50,[32],3.43 µM
same,TGI,[32],9.98 µM
same,GI50,[34],3.39 µM
same,TGI,[34],> 100 µM
same,GI50,[35],3.98 µM
same,TGI,[35],> 100 µM
same,GI50,[36],9.26 µM
same,TGI,[36],> 100 µM
same,GI50,[37],2.43 µM
same,TGI,[37],5.85 µM
same,GI50,[38],3.08 µM
same,TGI,[38],> 100 µM
same,GI50,[39],2.6 µM
same,TGI,[39],9.89 µM
same,GI50,[40],2.79 µM
same,TGI,[40],13.2 µM
same,GI50,[41],3.29 µM
same,TGI,[41],> 100 µM
same,GI50,[42],4.56 µM
same,TGI,[42],72.5 µM
same,GI50,[43],3.82 µM
same,TGI,[43],> 100 µM
same,GI50,[44],2.06 µM
same,TGI,[44],61 µM
same,GI50,[45],4.83 µM
same,TGI,[45],> 100 µM
same,GI50,[46],3.7 µM
same,TGI,[46],> 100 µM
same,GI50,[47],2.6 µM
same,TGI,[47],9.18 µM
same,GI50,[48],3.55 µM
same,TGI,[48],> 100 µM
same,GI50,[49],4.47 µM
same,TGI,[49],> 100 µM
same,GI50,[50],3.8 µM
same,TGI,[50],> 100 µM
same,GI50,[51],4.27 µM
same,TGI,[51],> 100 µM
same,GI50,[52],5.41 µM
same,TGI,[52],> 100 µM
same,GI50,[53],5.53 µM
same,TGI,[53],> 100 µM
same,GI50,[54],3.8 µM
same,TGI,[54],42.4 µM
same,GI50,[55],3.07 µM
same,TGI,[55],> 100 µM
same,GI50,[56],2.76 µM
same,TGI,[56],6.51 µM
same,GI50,[57],2.72 µM
same,TGI,[57],26.2 µM
